Measured values from patent US20250120928A1 (University of Maryland, Baltimore, priority 2021, published 2025).
“Also recorded” adds a separate entry of the source.

Key:
unstimulated BMMØs = assay: MTS assay; assay type: cell-based, C57BL/6J mice; details: Mus musculus; unstimulated BMMØs treated for 48 hours; read-out: IC50 (MTS assay, cellular proliferation)
Method: Cells were then washed with PBS and 50 μL of MTS solution was added to each well and incubated for 1 hour. The optical density (O.D.) of the solution was measured using a SpectraMax iD3 microplate reader at 570 nm. The percentage of cell proliferation was measured as the ratio of O.D. at 570 nm to no treatment control. IC50 values were calculated using GraphPad Prism 9 program based on a sigmoidal dose-response equation.

[1] = system: T cells (CD3+) from splenocytes; assay: Splenocyte apoptosis and cell death by AV/PI flow cytometry, T cells; assay type: cell-based; details: concentrations up to 30 μM
BMMØs = assay type: cell-based; details: 0-30 μM
Method: (§1) Three hours later, cells were stimulated with 100 ng/mL LPS. After 48 hours, cells were lifted using Versene and washed with cold PBS supplemented with 1% FBS and 0.4% 0.5 M EDTA (Quality Biological, Gaithersburg, MD). FcR blocking was performed with purified anti-mouse CD16/32 antibody (#101301) (Biolegend, San Diego, CA) prior to staining with Annexin V-FITC and propidium iodide kit (#640914) (BioLegend, San Diego, CA) for apoptosis and cell death. Cell staining was conducted according to BioLegend protocols for flow cytometry. Flow cytometry data were collected using a Becton Dickinson LSR II or Becton Dickinson Canto II flow cytometer. Flow plots and data processing was done using FCS Express 7 Flow Cytometry De Novo Software (De Novo, Glendale, CA).
as §1, with “After” for “Three hours later, cells were stimulated with 100 ng/mL LPS. After”

[2] = system: B cells (B220+) isolated from splenocytes; assay: Splenocyte apoptosis and cell death by AV/PI flow cytometry, B cells; assay type: cell-based
Method: Splenocytes were isolated from spleens as previously described. Briefly, 5-12-week C57BL/6J female mice were euthanized and the spleen was isolated. The spleen was processed into single-cell suspensions using a 40 μm cell strainer and flushed with cold PBS supplemented with 1% FBS and 0.4% 0.5 M EDTA (Quality Biological, Gaithersburg, MD). Erythrocytes were lysed with ACK lysis buffer (Quality Biological, Gaithersburg, MD). […] Subsequently, splenocytes were stimulated with 100 ng/mL LPS for 24 hours. Splenocytes were then washed with cold PBS supplemented with 1% FBS and 0.4% 0.5 M EDTA and FcR blocked, as previously mentioned. Splenocytes were then stained with purified anti-mouse PE/Cyanine7 CD45R/B220 antibody (#103222) (BioLegend, San Diego, CA) for the B cell population. SAHA and SAHA-OH apoptosis and cell death were then assessed using the FITC-AV Apoptosis Detection Kit with PI via flow cytometry, as previously mentioned. Flow cytometry data were collected using a Cytex Aurora flow cytometer. Flow plots and data processing was done using FCS Express 7 Flow Cytometry De Novo Software (De Novo, Glendale, CA).

[3] = system: LPS-stimulated bone marrow macrophages (BMMØ); assay: BMMØ cytokine secretion following LPS stimulation (ELISA, Luminex); assay type: cell-based, C57BL/6J mice
Method: (§2) Three hours later, cells were stimulated with 100 ng/mL LPS. After 48 hours, cell culture supernatants were collected and analyzed by enzyme-linked immunosorbent assays (ELISA) (BioLegend, San Diego, CA) to measure murine IL-6 and TNFα. MAGPIX Luminex bead-based multiplex ELISA (Thermo Fisher Scientific, Waltham, MA) measured for 7 various cytokines and chemokines, and data were analyzed using the Luminex xPONENT software (Millipore) as per manufacturer's instructions. The 7-plex panel included murine IFNβ, IL-10, IL-6, IL-1β, MCP-1 (CCL2), TNFα, and GROα (CXCL1).
as §2, with “After” for “Three hours later, cells were stimulated with 100 ng/mL LPS. After”, “(Milli-pore)” for “(Millipore)”, “TL-6,” for “IL-6,”

HDAC1, 2, 3 = system: T1, HDAC1, 2, 3; assay: Fluorescence-based HDAC activity assay with fluorogenic peptide substrate (Reaction Biology); assay type: biochemical
T1 construct: other: range over the three isoforms; other: 237-359 nM compared to 30000 nM
Method: Fluorescence-based activity assays using fluorogenic peptides as substrates for HDAC1, 2, 3, 6, and 8 were performed by Reaction Biology Corporation (reactionbiology.com). […] The substrate for HDACs 1, 2, 3, and 6 was a fluorogenic peptide from p53 residues 379-382 (RHKK(Ac)AMC) (SEQ ID NO: 1). The substrate for HDAC8 was a fluorogenic peptide from p53 residues 379-382 (RHK(Ac)K(Ac)AMC) (SEQ ID NO: 2). SAHA-OH IC50 values were calculated using GraphPad Prism 4 program based on a sigmoidal dose-response equation. The blank (DMSO) value was entered as 1.00×10^−12 of concentration for curve fitting.

[4] = 0-30 μM for 3 hours, then LPS 100 ng/mL 48 hours, ELISA
[5] = 10 μM, 3 hours before 48-hour LPS
[6] = 10 μM, 3 hours before 48-hour LPS, Luminex, relative to LPS control

Which IC50 (unstimulated BMMØs) does the source give for `O=C(CCCCCCC(=O)Nc1ccc(CO)cc1)NO` [SAHA-OH, N^1-hydroxy-N^8-(4-(hydroxymethyl)phenyl)octanediamide] here?
The IC50 was 1300 nM.

And the “toxicity for the T cell population” value [1]?
Its value is “minimal toxicity”.

What about the “apoptosis (AV+/PI−) over concentration” value (BMMØs) of the same compound?
Its value is “apoptosis induction”.

What about the “viability (AV−/PI−) over concentration” value (BMMØs) of the same compound?
The value was “concentration-dependent viability reduction”.

And the “toxicity profile for the B cell population” value ([2]; 0-30 μM)?
Its value is “concentration-dependent toxicity profiles”.

And the “decrease in cell death of the B cell population versus SAHA” value ([2]; 10 μM)?
Its value is 3 fold.

What about the “enhancement in viability of the B cell population versus SAHA” value ([2]; 10 μM) of the same compound?
The value was 5 fold.

And the IL-6 cytokine secretion [3, 4]?
The IL-6 cytokine secretion was “concentration-dependent reduction”.

And the TNFα cytokine secretion [3, 4]?
The TNFα cytokine secretion was “concentration-dependent reduction”.

What about the IL-6 secretion [3, 5] of the same compound?
Its IL-6 secretion is “less effective than SAHA; also recorded: only moderately suppressed”.

What about the MCP-1 cytokine secretions [3, 5] of the same compound?
Its MCP-1 cytokine secretions is “non-significantly affected”.

What about the IFNβ cytokine levels [3, 6] of the same compound?
Its IFNβ cytokine levels is “similarly suppressed cytokine levels compared to SAHA”.

And the IL-1β cytokine levels [3, 6]?
The IL-1β cytokine levels was “did not affect IL-1β (FIG. 8B) cytokine levels as effectively as 10 μM SAHA”.

What about the TNFα cytokine levels [3, 6] of the same compound?
Its TNFα cytokine levels is “similarly suppressed cytokine levels compared to SAHA”.

And the “GROα (CXCL1) secretion” value ([3]; 10 μM, Luminex, compared to LPS or SAHA-treated BMMØs)?
The value was “significant upregulation”.

What about the “more selective for HDAC1, 2, 3 compared to Tubastatin A” value (HDAC1, 2, 3; 237-359 nM compared to 30000 nM) of the same compound?
The value was “approximately 100 fold”.

What about the IC50 (HDAC1, 2, 3; range over the three isoforms, read-out: IC50 against HDAC1, 2, 3) of the same compound?
The IC50 was 237 to 359 nM.
